Test results published in the NIST ThermoML archive (doi:10.1016/j.jct.2009.11.014).

Settings: Liquid; for mass density: vibrating tube; for viscosity: Stony Brook Scientific falling needle HPHTV-100 viscometer

CCCCn1cc[n+](C)c1.F[B-](F)(F)F [1-butyl-3-methylimidazolium tetrafluoroborate]
Settings | mass density [kg/m3] | viscosity [mPa·s]
283.15 K, 100 kPa | 1212.53 | –
283.15 K, 2000 kPa | 1213.37 | –
283.15 K, 4000 kPa | 1214.24 | –
283.15 K, 6000 kPa | 1215.13 | –
283.15 K, 8000 kPa | 1216 | –
283.15 K, 10000 kPa | 1216.89 | –
283.15 K, 12000 kPa | 1217.77 | –
283.15 K, 14000 kPa | 1218.63 | –
283.15 K, 20000 kPa | 1221.2 | –
283.15 K, 30000 kPa | 1225.42 | –
283.15 K, 40000 kPa | 1229.49 | –
283.15 K, 50000 kPa | 1233.46 | –
283.15 K, 60000 kPa | 1237.32 | –
285.05 K, 110 kPa | – | 197.8
285.05 K, 14190 kPa | – | 236.6
285.15 K, 110 kPa | – | 197.5
285.15 K, 660 kPa | – | 197.8
285.15 K, 1660 kPa | – | 200.2
285.15 K, 2660 kPa | – | 202.7
285.15 K, 4070 kPa | – | 206.4
285.15 K, 6100 kPa | – | 211
285.15 K, 8180 kPa | – | 215.4
285.15 K, 10150 kPa | – | 220.7
285.15 K, 12050 kPa | – | 226.1
288.15 K, 100 kPa | 1208.87 | –
288.15 K, 2000 kPa | 1209.73 | –
288.15 K, 4000 kPa | 1210.65 | –
288.15 K, 6000 kPa | 1211.56 | –
288.15 K, 8000 kPa | 1212.45 | –
288.15 K, 10000 kPa | 1213.34 | –
288.15 K, 12000 kPa | 1214.22 | –
288.15 K, 14000 kPa | 1215.09 | –
288.15 K, 20000 kPa | 1217.71 | –
288.15 K, 30000 kPa | 1221.96 | –
288.15 K, 40000 kPa | 1226.06 | –
288.15 K, 50000 kPa | 1230.05 | –
288.15 K, 60000 kPa | 1233.94 | –
293.15 K, 100 kPa | 1205.25 | –
293.15 K, 2000 kPa | 1206.11 | –
293.15 K, 4000 kPa | 1207.04 | –
293.15 K, 6000 kPa | 1207.96 | –
293.15 K, 8000 kPa | 1208.85 | –
293.15 K, 10000 kPa | 1209.74 | –
293.15 K, 12000 kPa | 1210.69 | –
293.15 K, 14000 kPa | 1211.59 | –
293.15 K, 20000 kPa | 1214.19 | –
293.15 K, 30000 kPa | 1218.46 | –
293.15 K, 40000 kPa | 1222.59 | –
293.15 K, 50000 kPa | 1226.61 | –
293.15 K, 60000 kPa | 1230.53 | –
293.85 K, 120 kPa | – | 125.5
293.85 K, 710 kPa | – | 126.4
293.85 K, 1690 kPa | – | 127.1
293.85 K, 2640 kPa | – | 128.5
293.85 K, 4150 kPa | – | 130.9
293.85 K, 6130 kPa | – | 132.7
293.85 K, 8200 kPa | – | 134.9
293.85 K, 10200 kPa | – | 137.4
293.85 K, 12000 kPa | – | 142.1
293.85 K, 12230 kPa | – | 143.2
293.85 K, 14330 kPa | – | 146.1
293.85 K, 14700 kPa | – | 146
298.15 K, 100 kPa | 1201.64 | –
298.15 K, 2000 kPa | 1202.53 | –
298.15 K, 4000 kPa | 1203.45 | –
298.15 K, 6000 kPa | 1204.39 | –
298.15 K, 8000 kPa | 1205.3 | –
298.15 K, 10000 kPa | 1206.22 | –
298.15 K, 12000 kPa | 1207.12 | –
298.15 K, 14000 kPa | 1208 | –
298.15 K, 20000 kPa | 1210.64 | –
298.15 K, 30000 kPa | 1214.97 | –
298.15 K, 40000 kPa | 1219.15 | –
298.15 K, 50000 kPa | 1223.24 | –
298.15 K, 60000 kPa | 1227.21 | –
303.15 K, 100 kPa | 1198.09 | –
303.15 K, 120 kPa | – | 78.1
303.15 K, 770 kPa | – | 80
303.15 K, 1680 kPa | – | 82.4
303.15 K, 2000 kPa | 1198.98 | –
303.15 K, 2700 kPa | – | 83.3
303.15 K, 4000 kPa | 1199.92 | –
303.15 K, 4170 kPa | – | 84.4
303.15 K, 6000 kPa | 1200.85 | –
303.15 K, 6240 kPa | – | 85.1
303.15 K, 6290 kPa | – | 85
